# Assay results: patent publication EP0902002A1, “New derivatives of phthalaldehyde, process for their preparation and their use” (Hoechst Marion Roussel Deutschland GmbH, priority 1997, dated 1999)
# Assay: Physicochemical properties: solubility and pH stability
smiles,measurement,setting,value
CC(CCc1c(O)cc(C=O)c(C=O)c1O)C(=O)O (stereo not drawn) [Hericenal C],Löslichkeit,in Alkoholen und anderen polaren organischen Lösungsmitteln,lösliche
same,Stabilität,in neutralem und mild saurem Milieu (vorzugsweise > pH 2),stabil
same,Stabilität,in stark alkalischer Lösung (beispielsweise > pH 8),unbeständig
